Measured values taken from the CheMixHub drug solubility set.

Assay: xn = mol fraction of the nth substance listed, in the solute-free solvent

NCCS(=O)(=O)O + O + CC#N
solubility (g/100 g solution)
Settings	298.15 K	303.15 K	308.15 K	313.15 K	318.15 K
x2 = 0.6949	0.528	0.562	0.597	0.644	0.864
x2 = 0.7736	1.15	1.28	1.37	1.54	1.75
x2 = 0.8417	2.09	2.47	2.66	2.99	3.69
x2 = 0.9011	3.76	4.25	4.87	6.01	7.16
x2 = 0.9535	6.1	7.22	8.46	9.89	11.6

O=C(O)C1CC(O)CN1 (centres undefined) + O + CC#N
solubility (g/100 g solution)
Settings	x2 = 0.1	x2 = 0.2	x2 = 0.3	x2 = 0.4	x2 = 0.5	x2 = 0.6	x2 = 0.7	x2 = 0.8	x2 = 0.9
283.15 K	0.0362	0.0575	0.0864	0.185	–	0.635	1.45	3.22	9.59
293.15 K	0.0605	0.101	0.188	0.517	1.13	1.82	2.8	4.82	12.7
303.15 K	0.0971	0.136	0.287	0.813	1.6	2.88	4.48	7.02	15.9
313.15 K	0.128	0.203	0.398	1.08	2.25	3.66	6.08	11.3	21.4
323.15 K	0.187	0.327	0.778	1.71	3.12	5.6	10.2	16.7	24.8
